Measurements taken from ChEMBL document CHEMBL5058564, “EUbOPEN Chemogenomics Library 2 (Incucyte)” (2022).

Key:
Assay type in all cases: toxicity, cell-based
U2OS = experiment: Incucyte cell viability with U2OS; conditions: human, 10 µM, compound concentration 10 uM
HEK-293T = experiment: Incucyte cell viability with HEK293T; conditions: human, 10 µM, compound concentration 10 uM
Fibroblast = experiment: Incucyte cell viability with human fibroblast; conditions: 10 µM, compound concentration 10 uM
[1] = 0 h, replicate number 1, timepoint 0 hours
[2] = 6 h, replicate number 2, timepoint 6 hours
[3] = 12 h, replicate number 2, timepoint 12 hours
[4] = 18 h, replicate number 1, timepoint 18 hours
[5] = 18 h, replicate number 2, timepoint 18 hours
[6] = 24 h, replicate number 1, timepoint 24 hours
[7] = 6 h, replicate number 1, timepoint 6 hours
[8] = 24 h, replicate number 2, timepoint 24 hours
[9] = 12 h, replicate number 1, timepoint 12 hours
[10] = 0 h, replicate number 2, timepoint 0 hours
Also: unitless GR value; below 1 slowed growth and below 0 cell loss.

CC#C[C@@H](CC(=O)O)c1ccc(OCc2cccc(-c3ccc(C(F)(F)F)cc3)c2)cc1
Growth Rate (U2OS; [1]): 0.35
Growth Rate (U2OS; [2]): 0.69
Growth Rate (U2OS; [3]): 0.96
Growth Rate (U2OS; [4]): 0.85
Growth Rate (U2OS; [5]): 0.96
Growth Rate (HEK-293T; [2]): 0.55
Growth Rate (HEK-293T; [3]): 0.95
Growth Rate (HEK-293T; [4]): 0.65
Growth Rate (HEK-293T; [5]): 0.93
Growth Rate (HEK-293T; [6]): 0.68
Growth Rate (Fibroblast; [7]): 0.66
Growth Rate (Fibroblast; [2]): -0.08
Growth Rate (Fibroblast; [3]): 0.23
Growth Rate (Fibroblast; [5]): 0.02
Growth Rate (Fibroblast; [6]): 0.66
Growth Rate (Fibroblast; [8]): 0.31

O=C1COc2nccc(-c3ccccc3F)c2CN1Cc1cc(C(F)(F)F)cc(C(F)(F)F)c1
Growth Rate (U2OS; [1]): -0.7
Growth Rate (U2OS; [3]): 0.96
Growth Rate (U2OS; [4]): 0.97
Growth Rate (U2OS; [5]): 0.94
Growth Rate (U2OS; [6]): 0.88
Growth Rate (U2OS; [8]): 0.93
Growth Rate (HEK-293T; [2]): 0.77
Growth Rate (HEK-293T; [3]): 0.89
Growth Rate (HEK-293T; [4]): 0.98
Growth Rate (HEK-293T; [5]): 0.88
Growth Rate (Fibroblast; [7]): 0.17
Growth Rate (Fibroblast; [9]): 0.8
Growth Rate (Fibroblast; [4]): 0.58
Growth Rate (Fibroblast; [6]): 0.73

Br.CS(=O)(=O)Nc1c(O)ccc2c1CCCC2C1=NCCN1 (stereo not given)
Growth Rate (U2OS; [10]): -1
Growth Rate (U2OS; [7]): -0.8
Growth Rate (U2OS; [9]): 0.72
Growth Rate (U2OS; [4]): 0.68
Growth Rate (U2OS; [6]): 0.86
Growth Rate (HEK-293T; [2]): 0.33
Growth Rate (HEK-293T; [9]): 0.92
Growth Rate (Fibroblast; [1]): 0.32
Growth Rate (Fibroblast; [10]): 0.39
Growth Rate (Fibroblast; [6]): 0.94

CC[C@H]1OC(=O)[C@H](C)[C@@H](O[C@H]2C[C@@](C)(OC)[C@@H](O)[C@H](C)O2)[C@H](C)[C@@H](O[C@@H]2O[C@H](C)C[C@H](N(C)C)[C@H]2O)[C@@]2(C)CC(C)=C(O2)[C@H](C)[C@@H](O)[C@]1(C)O
Growth Rate (U2OS; [5]): 0.96
Growth Rate (HEK-293T; [2]): 0.55
Growth Rate (HEK-293T; [3]): 0.77
Growth Rate (HEK-293T; [5]): 0.75
Growth Rate (HEK-293T; [8]): 0.82
Growth Rate (Fibroblast; [7]): 0.46
Growth Rate (Fibroblast; [2]): 0.95
Growth Rate (Fibroblast; [9]): 0.38
Growth Rate (Fibroblast; [3]): 0.44
Growth Rate (Fibroblast; [4]): 0.44
Growth Rate (Fibroblast; [6]): 0.64

Cc1ccc(Cn2nc(C(=O)N[C@@H]3C(C)(C)[C@@H]4CC[C@@]3(C)C4)cc2-c2ccc(Cl)c(C)c2)cc1
Growth Rate (U2OS; [1]): -1
Growth Rate (U2OS; [2]): 0.89
Growth Rate (U2OS; [9]): 0.92
Growth Rate (U2OS; [3]): 0.74
Growth Rate (U2OS; [5]): 0.82
Growth Rate (U2OS; [6]): 0.86
Growth Rate (U2OS; [8]): 0.74
Growth Rate (HEK-293T; [2]): 0.75
Growth Rate (HEK-293T; [3]): 0.96
Growth Rate (HEK-293T; [4]): 0.94
Growth Rate (HEK-293T; [6]): 0.95
Growth Rate (Fibroblast; [7]): 0.46
Growth Rate (Fibroblast; [2]): 0.01
Growth Rate (Fibroblast; [9]): 0.76
Growth Rate (Fibroblast; [3]): 0.14
Growth Rate (Fibroblast; [4]): 0.78
Growth Rate (Fibroblast; [6]): 0.72

C[C@@H](c1ccc(F)cc1)n1nnc2cnc3ccc(-c4ccc5ocnc5c4)cc3c21
Growth Rate (U2OS; [1]): -0.51
Growth Rate (U2OS; [10]): 0.33
Growth Rate (U2OS; [3]): 0.94
Growth Rate (U2OS; [4]): 0.75
Growth Rate (U2OS; [5]): 0.83
Growth Rate (U2OS; [6]): 0.51
Growth Rate (U2OS; [8]): 0.82
Growth Rate (HEK-293T; [7]): -0.12
Growth Rate (HEK-293T; [2]): -0.31
Growth Rate (HEK-293T; [9]): -0.11
Growth Rate (HEK-293T; [3]): -0.14
Growth Rate (HEK-293T; [4]): 0.09
Growth Rate (HEK-293T; [5]): 0.07
Growth Rate (HEK-293T; [6]): 0.23
Growth Rate (HEK-293T; [8]): 0.21
Growth Rate (Fibroblast; [1]): 0.92

CC(C)(C)c1ccc(-c2coc3ccc(-c4cn[nH]c4)nc23)cc1
Growth Rate (U2OS; [1]): 0.4
Growth Rate (U2OS; [3]): 0.79
Growth Rate (U2OS; [4]): 0.76
Growth Rate (U2OS; [5]): 0.53
Growth Rate (U2OS; [6]): 0.69
Growth Rate (U2OS; [8]): 0.43
Growth Rate (HEK-293T; [7]): 0.36
Growth Rate (HEK-293T; [2]): 0.2
Growth Rate (HEK-293T; [9]): 0.44
Growth Rate (HEK-293T; [3]): 0.39
Growth Rate (HEK-293T; [4]): 0.66
Growth Rate (HEK-293T; [6]): 0.67
Growth Rate (HEK-293T; [8]): 0.62
Growth Rate (Fibroblast; [7]): -0.89
Growth Rate (Fibroblast; [2]): -0.35
Growth Rate (Fibroblast; [9]): -0.7
Growth Rate (Fibroblast; [3]): 0
Growth Rate (Fibroblast; [4]): -0.62
Growth Rate (Fibroblast; [5]): 0.05
Growth Rate (Fibroblast; [6]): -0.48
Growth Rate (Fibroblast; [8]): 0.09

O=C1NCc2ccc3c(-c4cccc(Cl)c4)c[nH]c3c21
Growth Rate (U2OS; [1]): -0.28
Growth Rate (U2OS; [10]): 0.01
Growth Rate (U2OS; [7]): 0.17
Growth Rate (U2OS; [2]): -0.08
Growth Rate (U2OS; [9]): 0.07
Growth Rate (U2OS; [3]): -0.24
Growth Rate (U2OS; [4]): 0.03
Growth Rate (U2OS; [5]): -0.24
Growth Rate (U2OS; [6]): -0.13
Growth Rate (U2OS; [8]): -0.28
Growth Rate (HEK-293T; [7]): -0.52
Growth Rate (HEK-293T; [2]): -0.56
Growth Rate (HEK-293T; [9]): -0.31
Growth Rate (HEK-293T; [3]): -0.09
Growth Rate (HEK-293T; [4]): -0.21
Growth Rate (HEK-293T; [5]): -0.1
Growth Rate (HEK-293T; [6]): -0.19
Growth Rate (HEK-293T; [8]): -0.07
Growth Rate (Fibroblast; [7]): -0.99
Growth Rate (Fibroblast; [2]): -0.83
Growth Rate (Fibroblast; [9]): -0.86
Growth Rate (Fibroblast; [3]): -0.4
Growth Rate (Fibroblast; [4]): -0.65
Growth Rate (Fibroblast; [5]): -0.18
Growth Rate (Fibroblast; [6]): -0.39
Growth Rate (Fibroblast; [8]): 0.01

O=c1c2cccn2c2ccccc2n1CCCN1CCC(c2ccc(Cl)cc2)CC1
Growth Rate (U2OS; [10]): -1
Growth Rate (U2OS; [3]): 0.89
Growth Rate (U2OS; [5]): 0.89
Growth Rate (U2OS; [8]): 0.8
Growth Rate (HEK-293T; [2]): 0.34
Growth Rate (HEK-293T; [9]): 0.61
Growth Rate (HEK-293T; [3]): 0.39
Growth Rate (HEK-293T; [4]): 0.56
Growth Rate (HEK-293T; [5]): 0.55
Growth Rate (HEK-293T; [6]): 0.76
Growth Rate (HEK-293T; [8]): 0.9
Growth Rate (Fibroblast; [7]): -0.55
Growth Rate (Fibroblast; [2]): -0.88
Growth Rate (Fibroblast; [9]): -0.52
Growth Rate (Fibroblast; [3]): -0.58
Growth Rate (Fibroblast; [4]): -0.55
Growth Rate (Fibroblast; [5]): -0.28
Growth Rate (Fibroblast; [6]): -0.3
Growth Rate (Fibroblast; [8]): -0.26

CN1CCN(c2cc(-c3ccccc3)nc(N)n2)CC1
Growth Rate (U2OS; [1]): 0.75
Growth Rate (U2OS; [2]): 0.59
Growth Rate (U2OS; [3]): 0.96
Growth Rate (U2OS; [4]): 0.97
Growth Rate (HEK-293T; [2]): 0.96
Growth Rate (Fibroblast; [1]): 0.2
Growth Rate (Fibroblast; [10]): 0.38
Growth Rate (Fibroblast; [9]): 0.86
Growth Rate (Fibroblast; [4]): 0.76
Growth Rate (Fibroblast; [6]): 0.83

CN(c1ncccc1CNc1ccnc(-c2cc3cc(Cl)ccc3[nH]2)n1)S(C)(=O)=O
Growth Rate (U2OS; [1]): -0.74
Growth Rate (U2OS; [10]): 1
Growth Rate (U2OS; [7]): 0.59
Growth Rate (U2OS; [9]): 0.52
Growth Rate (U2OS; [3]): 0.71
Growth Rate (U2OS; [4]): 0.58
Growth Rate (U2OS; [5]): 0.74
Growth Rate (U2OS; [6]): 0.61
Growth Rate (U2OS; [8]): 0.7
Growth Rate (HEK-293T; [7]): -0.71
Growth Rate (HEK-293T; [2]): -0.53
Growth Rate (HEK-293T; [9]): -0.48
Growth Rate (HEK-293T; [3]): -0.31
Growth Rate (HEK-293T; [4]): -0.36
Growth Rate (HEK-293T; [5]): -0.25
Growth Rate (HEK-293T; [6]): -0.24
Growth Rate (HEK-293T; [8]): -0.09
Growth Rate (Fibroblast; [7]): -0.63
Growth Rate (Fibroblast; [2]): -0.2
Growth Rate (Fibroblast; [9]): -0.43
Growth Rate (Fibroblast; [3]): -0.15
Growth Rate (Fibroblast; [4]): -0.12
Growth Rate (Fibroblast; [5]): -0.08
Growth Rate (Fibroblast; [6]): 0.15
Growth Rate (Fibroblast; [8]): 0.04

CCC(C)n1ncn(-c2ccc(N3CCN(c4ccc(OC[C@@H]5CO[C@@](Cn6cncn6)(c6ccc(Cl)cc6Cl)O5)cc4)CC3)cc2)c1=O.CCC(C)n1ncn(-c2ccc(N3CCN(c4ccc(OC[C@H]5CO[C@](Cn6cncn6)(c6ccc(Cl)cc6Cl)O5)cc4)CC3)cc2)c1=O (stereo not given in full)
Growth Rate (U2OS; [1]): -0.09
Growth Rate (U2OS; [6]): 0.73
Growth Rate (U2OS; [8]): 0.94
Growth Rate (HEK-293T; [7]): -0.37
Growth Rate (HEK-293T; [2]): 0.11
Growth Rate (HEK-293T; [9]): -0.28
Growth Rate (HEK-293T; [3]): 0.15
Growth Rate (HEK-293T; [4]): 0.44
Growth Rate (HEK-293T; [5]): 0.02
Growth Rate (HEK-293T; [6]): -0.08
Growth Rate (HEK-293T; [8]): 0.33
Growth Rate (Fibroblast; [1]): 0.6
Growth Rate (Fibroblast; [10]): -0.02
Growth Rate (Fibroblast; [8]): 0.95

CO/C1=C/C(C)=C\[C@@H](C)[C@@H](O)[C@@H](C)C/C(C)=C\C=C/[C@H](OC)C([C@@H](C)[C@@H](O)[C@H](C)[C@@]2(O)C[C@@H](O)[C@H](C)[C@@H](C(C)C)O2)OC1=O (stereo not given in full)
Growth Rate (U2OS; [7]): 0.5
Growth Rate (U2OS; [2]): 0.63
Growth Rate (U2OS; [9]): 0.37
Growth Rate (U2OS; [3]): 0.39
Growth Rate (U2OS; [4]): 0.23
Growth Rate (U2OS; [5]): 0.18
Growth Rate (U2OS; [6]): 0.14
Growth Rate (U2OS; [8]): 0.12
Growth Rate (HEK-293T; [7]): -0.8
Growth Rate (HEK-293T; [2]): -0.9
Growth Rate (HEK-293T; [9]): -0.61
Growth Rate (HEK-293T; [3]): -0.69
Growth Rate (HEK-293T; [4]): -0.45
Growth Rate (HEK-293T; [5]): -0.5
Growth Rate (HEK-293T; [6]): -0.36
Growth Rate (HEK-293T; [8]): -0.38
Growth Rate (Fibroblast; [1]): 0.09
Growth Rate (Fibroblast; [10]): -0.31
Growth Rate (Fibroblast; [7]): -0.77
Growth Rate (Fibroblast; [2]): -0.59
Growth Rate (Fibroblast; [9]): -0.79
Growth Rate (Fibroblast; [3]): -0.56
Growth Rate (Fibroblast; [4]): -0.72
Growth Rate (Fibroblast; [5]): -0.46
Growth Rate (Fibroblast; [6]): -0.61
Growth Rate (Fibroblast; [8]): -0.4

COc1ccc(S(=O)(=O)N2C(=O)[C@@](c3ccccc3OC)(N3C[C@H](O)C[C@H]3C(=O)N(C)C)c3cc(Cl)ccc32)c(OC)c1
Growth Rate (U2OS; [1]): 0.6
Growth Rate (U2OS; [10]): -1
Growth Rate (U2OS; [7]): 0.33
Growth Rate (U2OS; [4]): 0.82
Growth Rate (U2OS; [5]): 0.98
Growth Rate (U2OS; [8]): 0.9
Growth Rate (HEK-293T; [2]): 0.78
Growth Rate (Fibroblast; [7]): 0.08
Growth Rate (Fibroblast; [2]): -0.04
Growth Rate (Fibroblast; [9]): 0.09
Growth Rate (Fibroblast; [3]): 0.24
Growth Rate (Fibroblast; [4]): 0.36
Growth Rate (Fibroblast; [5]): 0.45
Growth Rate (Fibroblast; [6]): 0.43
Growth Rate (Fibroblast; [8]): 0.6
